Test results published in patent publication US7524853B2 (Solvay Pharmaceuticals B.V., priority 2003, dated 2009).

Columns and labels:
Format in all cases: cell-based
[1] = molecular target: T1, 17β-hydroxysteroid dehydrogenase type 3 (17β-HSD type 3) (Homo sapiens, UniProt P37058); assay: Inhibition of 17β-HSD type 3 in MCF-7 cells stably expressing the isoenzyme (tritium labeled androstenedione conversion, HPLC); settings: MCF7, MCF-7 cells expressing 17β-HSD type 3, 2 nM tritium labeled androstenedione; for inhibition at 1 µM: 1 μM test compound, read-out: % Inhibition HSD3 1 μM; for inhibition at 10 µM: 10 μM test compound, read-out: % Inhibition HSD3 10 μM
T1 construct: expressed in transfected cells; host or cells: MCF-7
T1 sequence (P37058 1-310): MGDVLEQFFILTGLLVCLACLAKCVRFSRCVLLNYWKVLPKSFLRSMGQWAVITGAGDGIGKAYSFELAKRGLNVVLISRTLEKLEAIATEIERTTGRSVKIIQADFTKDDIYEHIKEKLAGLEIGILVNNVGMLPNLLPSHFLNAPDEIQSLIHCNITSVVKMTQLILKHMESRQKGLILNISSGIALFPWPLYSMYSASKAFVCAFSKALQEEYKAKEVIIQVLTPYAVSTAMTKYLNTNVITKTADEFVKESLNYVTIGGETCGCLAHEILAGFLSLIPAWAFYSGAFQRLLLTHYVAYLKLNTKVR
Summary of the method: (§1)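 Percent inhibition derived by comparing substrate conversion with versus without compound, quantified by HPLC–radioflow detection after TCA stop. Cells were stably transfected MCF-7 expressing type 1, 2 or 3 enzyme, given 2 nM labeled estrone, estradiol or androstenedione respectively; compounds tested at two concentrations.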

[2] = molecular target: T2, 17β-hydroxysteroid dehydrogenase type 2 (17β-HSD type 2) (Homo sapiens, UniProt P37059); assay: Inhibition of 17β-HSD type 2 in MCF-7 cells stably expressing the isoenzyme (tritium labeled estradiol conversion, HPLC); settings: MCF7, MCF-7 cells expressing 17β-HSD type 2, 2 nM tritium labeled estradiol; for inhibition at 1 µM: 1 μM test compound, read-out: % Inhibition HSD2 1 μM; for inhibition at 10 µM: 10 μM test compound, read-out: % Inhibition HSD2 10 μM
T2 construct: expressed in transfected cells; host or cells: MCF-7
T2 sequence (P37059 1-387): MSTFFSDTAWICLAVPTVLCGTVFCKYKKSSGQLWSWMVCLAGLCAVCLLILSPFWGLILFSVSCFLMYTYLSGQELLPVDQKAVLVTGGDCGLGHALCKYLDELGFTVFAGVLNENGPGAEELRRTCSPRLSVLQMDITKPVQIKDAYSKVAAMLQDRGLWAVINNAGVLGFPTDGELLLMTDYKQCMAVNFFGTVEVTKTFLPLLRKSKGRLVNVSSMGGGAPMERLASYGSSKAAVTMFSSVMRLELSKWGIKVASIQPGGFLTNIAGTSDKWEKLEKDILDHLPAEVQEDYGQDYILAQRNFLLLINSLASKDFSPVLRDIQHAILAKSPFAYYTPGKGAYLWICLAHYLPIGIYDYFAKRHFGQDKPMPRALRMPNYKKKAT
Summary of the method: as §1

[3] = molecular target: T3, 17β-hydroxysteroid dehydrogenase type 1 (17β-HSD type 1) (Homo sapiens, UniProt P14061); assay: Inhibition of 17β-HSD type 1 in MCF-7 cells stably expressing the isoenzyme (tritium labeled estrone conversion, HPLC); settings: MCF7, MCF-7 cells expressing 17β-HSD type 1, 2 nM tritium labeled estrone; for inhibition at 1 µM: 1 μM test compound, read-out: % Inhibition HSD1 1 μM; for inhibition at 10 µM: 10 μM test compound, read-out: % Inhibition HSD1 10 μM
T3 construct: expressed in transfected cells; host or cells: MCF-7
T3 sequence (P14061 1-328): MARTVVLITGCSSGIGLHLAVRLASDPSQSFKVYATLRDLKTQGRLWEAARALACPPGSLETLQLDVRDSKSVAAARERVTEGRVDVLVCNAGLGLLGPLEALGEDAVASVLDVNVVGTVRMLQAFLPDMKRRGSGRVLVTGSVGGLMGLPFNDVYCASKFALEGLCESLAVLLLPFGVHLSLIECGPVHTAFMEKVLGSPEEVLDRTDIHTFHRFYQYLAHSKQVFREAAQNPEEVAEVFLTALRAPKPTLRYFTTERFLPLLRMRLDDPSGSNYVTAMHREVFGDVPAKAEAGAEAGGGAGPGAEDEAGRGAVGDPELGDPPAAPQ
Summary of the method: as §1

| SMILES | inhibition at 1 µM [1] [%] | inhibition at 10 µM [1] [%] | inhibition at 1 µM [2] [%] | inhibition at 10 µM [2] [%] | inhibition at 1 µM [3] [%] | inhibition at 10 µM [3] [%] |
| --- | --- | --- | --- | --- | --- | --- |
| CCC(C)Cn1c(-c2cc(OC)c(OC)c(OC)c2)nc2sc3c(c2c1=O)CCCC3=O (stereo not drawn) [No. 126, 3-(2-Methylbutyl)-2-(3,4,5-trimethoxyphenyl)-6,7-dihydro-3H,5H-benzo[4,5]thieno[2,3-d]pyrimidine-4,8-dione] | 8 | 36.3 | 6.6 | -9 | 27.4 | 59.3 |
| CCC(C)Cn1c(-c2cc(OC)c(OC)c(OC)c2)nc2sc3c(c2c1=O)CCC(Br)C3=O (stereo not drawn) [No. 127, 7-Bromo-3-(2-methylbutyl)-2-(3,4,5-trimethoxyphenyl)-6,7-dihydro-3H,5H-benzo[4,5]thieno[2,3-d]pyrimidine-4,8-dione] | 4.8 | 29.3 | -0.4 | 5.7 | 40.3 | 91.3 |
| CCC(C)Cn1c(-c2cc(OC)c(OC)c(OC)c2Br)nc2sc3c(c2c1=O)CCC(Br)(Br)C3=O (stereo not drawn) [No. 128, 7,7-Dibromo-2-(2-bromo-3,4,5-trimethoxyphenyl)-3-(2-methylbutyl)-6,7-dihydro-3H,5-benzo[4,5]thieno[2,3-d]pyrimidine-4,8-dione] | 4.7 | 6.3 | -4.9 | 0 | 17.9 | 25.9 |
| CCC(C)Cn1c(-c2cc(OC)c(OC)c(OC)c2)nc2sc3c(O)cccc3c2c1=O (stereo not drawn) [No. 129, 8-Hydroxy-3-(2-methylbutyl)-2-(3,4,5-trimethoxyphenyl)-3H-benzo[4,5]thieno[2,3-d]pyrimidin-4-one] | 34.7 | 78.6 | 23.9 | 53.1 | 46.8 | 85.3 |
| COc1cc(-c2nc3sc4c(c3c(=O)n2CC2CCCO2)CCCC4=O)cc(OC)c1OC (stereo not drawn) [No. 131, 3-(Tetrahydro-furan-2-ylmethyl)-2-(3,4,5-trimethoxyphenyl)-6,7-dihydro-3H,5H-benzo[4,5]thieno[2,3-d]pyrimidine-4,8-dione] | 30.9 | 80.1 | 31.2 | 40.1 | 37.7 | 84.7 |
| COc1cc(-c2nc3sc4c(c3c(=O)n2CC2CCCO2)CCC(Br)C4=O)c(Br)c(OC)c1OC (stereo not drawn) [No. 132, 7-Bromo-2-(2-bromo-3,4,5-trimethoxyphenyl)-3-(tetrahydrofuran-2-ylmethyl)-6,7-dihydro-3H,5H-benzo[4,5]thieno[2,3-d]pyrimidine-4,8-dione] | 16.9 | 24.9 | 22.8 | 16.9 | 23.8 | 53.9 |
| COc1cc(-c2nc3sc4c(O)cccc4c3c(=O)n2CC2CCCO2)c(Br)c(OC)c1OC (stereo not drawn) [No. 133, 2-(2-Bromo-3,4,5-trimethoxyphenyl)-8-hydroxy-3-(tetrahydrofuran-2-ylmethyl)-3H-benzo[4,5]thieno[2,3-d]pyrimidin-4-one] | 18.7 | 37.7 | 6.8 | 24.3 | 18.2 | 58.4 |
| CCCCn1c(-c2cccs2)nc2sc3c(c2c1=O)CCCC3=O [No. 134, 3-Butyl-2-thiophen-2-yl-6,7-dihydro-3H,5H-benzo[4,5]thieno[2,3-d]pyrimidine-4,8-dione] | 17.2 | 21.6 | 9.9 | 11.6 | 16 | 7.9 |
| COc1cc(-c2nc3sc4c(c3c(=O)n2CC(C)C)C(Br)CCC4=O)cc(OC)c1OC (stereo not drawn) [No. 135, 5-Bromo-3-isobutyl-2-(3,4,5-trimethoxyphenyl)-6,7-dihydro-3H,5H-benzo[4,5]thieno[2,3-d]pyrimidine-4,8-dione] | 21.8 | 93.1 | 19.1 | 34.6 | 54 | 96.6 |
| COc1cc(-c2nc3sc4c(OC)cccc4c3c(=O)n2CC(C)C)cc(OC)c1OC [No. 136, 3-Isobutyl-8-methoxy-2-(3,4,5-trimethoxyphenyl)-3H-benzo[4,5]thieno[2,3-d]pyrimidin-4-one] | 3.5 | 11 | 23.2 | 8.8 | 3.6 | 8.5 |
| COc1cc(-c2nc3sc4c(c3c(=O)n2Cc2ccccc2)C(Br)CCC4=O)cc(OC)c1OC (stereo not drawn) [No. 137, 3-Benzyl-5-bromo-2-(3,4,5-trimethoxyphenyl)-6,7-dihydro-3H,5H-benzo[4,5]thieno[2,3-d]pyrimidine-4,8-dione] | 19.3 | 49.8 | 28.1 | 32.9 | 35 | 76 |
| COc1cc(-c2nc3sc4c(OC)cccc4c3c(=O)n2Cc2ccccc2)cc(OC)c1OC [No. 138, 3-Benzyl-8-methoxy-2-(3,4,5-trimethoxyphenyl)-3H-benzo[4,5]thieno[2,3-d]pyrimidin-4-one] | 6.8 | 23 | 25.7 | 24.8 | 20.6 | 21.5 |
| COc1cc(-c2nc3sc4c(O)cccc4c3c(=O)n2CC2CCCO2)c(Cl)c(OC)c1OC (stereo not drawn) [No. 140, 2-(2-Chloro-3,4,5-trimethoxyphenyl)-8-hydroxy-3-(tetrahydrofuran-2-ylmethyl)-3H-benzo[4,5]thieno[2,3-d]pyrimidin-4-one] | 8.8 | 63.5 | 10.3 | 36.8 | 39.5 | 81 |
| CCC(C)Cn1c(-c2cc(OC)c(OC)c(OC)c2Cl)nc2sc3c(c2c1=O)CCC(Cl)C3=O (stereo not drawn) [No. 141, 7-Chloro-2-(2-chloro-3,4,5-trimethoxyphenyl)-3-(2-methylbutyl)-6,7-dihydro-3H,5H-benzo[4,5]thieno[2,3-d]pyrimidine-4,8-dione] | 2.7 | 22.7 | 3 | 1.1 | 25 | 58.9 |
| CCC(C)Cn1c(-c2cc(OC)c(OC)c(OC)c2Cl)nc2sc3c(c2c1=O)CCC(Cl)(Cl)C3=O (stereo not drawn) [No. 142, 7,7-Dichloro-2-(2-chloro-3,4,5-trimethoxyphenyl)-3-(2-methylbutyl)-6,7-dihydro-3H,5H-benzo[4,5]thieno[2,3-d]pyrimidine-4,8-dione] | 8 | 24.1 | 6.2 | 10.5 | 32.8 | 52.7 |
| CCC(C)Cn1c(-c2cc(OC)c(OC)c(OC)c2Cl)nc2sc3c(O)cccc3c2c1=O (stereo not drawn) [No. 143, 2-(2-Chloro-3,4,5-trimethoxyphenyl)-8-hydroxy-3-(2-methylbutyl)-3H-benzo[4,5]thieno[2,3-d]pyrimidin-4-one] | 12.5 | 52.1 | 4.5 | 17.7 | 40.1 | 74.2 |
